Data set [1] can be described thus: Distribution between mouse plasma and brain (brain penetration, ip). The data set is classed as in vivo. As to conditions: for Brain/plasma ratio / [compound]Brain / [compound]Plasma: Table 14, mice, single ip dose 5 mg/kg, one hour post-dose; for [compound]Brain / [compound]Plasma: ± SEM of 3 mice (compound 3: 6 mice); for Kp at 1 h / concentration at 1 h: mouse, intraperitoneal, 5 mg/kg, Table 8; for Kp at 1 h: brain and plasma, groups of 3 mice, read-out: Average brain/plasma ratio; for concentration at 1 h: groups of 3 mice (compound 3: ± SEM of 6 mice). How it is done:
For distribution of compounds between mouse plasma and brain, mice (in groups of 3) were injected with test compounds (5 mg/kg ip) and sacrificed at the indicated times for collection of plasma and brain. Compound was dissolved in 0.4 mL of dosing solution (7% Tween 80, 3% ethanol, 5% DMSO, 0.9% saline) for ip injections. The brains were weighed and immediately frozen, then later homogenized in acetonitrile using a Dounce homogenizer. Prior to animal studies, recovery of test compound was carried out by adding a known amount to a mouse brain in the test extraction solvent and performing the homogenization. Compound recovery was determined by liquid chromatography/tandem mass spectrometry analysis relative to a standard compound amount. Blood was taken from the same mice in heparinized capillary tubes (Fisherbrand) for determination of compound concentration in plasma. The concentration of compound in the brain was obtained by dividing the moles of compound in the brain by the brain volume (obtained from the brain weight assuming 1 g is 1 mL) and correcting for the brain vasculature volume of 2.5% by weight.
Brain penetration studies (Table 14) were initially performed upon compounds 1, 2, and 3, but were expanded to include other compounds in order to explore the SAR of brain penetration. Groups of three mice were given single 5 mg/kg ip doses of the test compounds and were sacrificed 1 h post-dose.

The next data set has as its system T. b. brucei. Description: In vitro antitrypanosomal activity against T. brucei (growth inhibition). The data set is classed as cell-based, Trypanosoma brucei. The conditions noted are these: Trypanosoma brucei. How it is done:
Primary hits from the screen were further characterized using a dose-response assay format to determine the EC50. In parallel, the cytotoxicities of these compounds were determined against a proliferating human hepatoma cell line (Huh7). […] SI—CC50/EC50). The final set of confirmed T. brucei hits consisted of 1035 inhibitors. […] In vitro antitrypanosomal activities against T. b. rhodesiense (STIB9000) and cytotoxicities against L6 rat myoblast cells were measured following established protocols (Orhan et al., Mar. Drugs 8:47 (2010). […] All wells including negative controls contained a final of 0.4% DMSO. After incubation of the plates at 37° C. for 48 h, the parasite density was determined using the CellTiter-Glo reagent (Promega), a firefly luciferase assay system that measures the amount of cellular ATP present in plate wells.

The test system of another data set is Trypanosoma cruzi. Put plainly: Efficacy against T. cruzi in vitro. Type of data set: cell-based. As to conditions: Trypanosoma cruzi, Table 10.
Where [2] appears, read: brain, read-out: Average [compound] brain.
Setting [3] is: plasma, read-out: Average [compound] plasma.
The mark [4] stands for this setting: Table 8, read-out: T. brucei EC50.
[5] abbreviates: Table 9, read-out: T. brucei EC50.
The mark [6] stands for this setting: Table 9, read-out: T. brucei EC90.

Structures are written as SMILES. Like-named read-outs stand apart in the source and are kept apart here.

In general, melting point refers to the temperature of the solid-liquid transition. What is called EC50 is the concentration that produces a half-maximal response. As a reminder, the EC90 is the point of the concentration-response curve where the effect stands at 90%. On to `O=C(Nc1ccc2sc(-c3ccc(F)c(F)c3)nc2c1)N1CCC(C(F)(F)F)C1` (stereo not shown) [Compound 10, 2-(3,4-Difluorophenyl)-5-[(3-trifluoromethyl)-N-pyrrolidylamido]benzothiazole], for which the melting point fell in the range of 171 to 175 °C. In addition, in data set [1], the Brain/plasma ratio was found to be 0.477 ± 0.052, the “[compound]Brain” value was 1.97 ± 0.612 µM, the “[compound]Plasma” value is 4.15 ± 1.368 µM and the Kp at 1 h was determined as 0.477 ± 0.09. For the same molecule, the concentration at 1 h in data set [1] (setting [2]) came to 1970 ± 1060 nM. For the same molecule, in data set [1] (setting [3]), the concentration at 1 h came out at 4150 ± 2370 nM. The EC50 in the data set on T. b. brucei (setting [4]) is 1.7 µM. For the same molecule, the EC50 in the data set on T. b. brucei (setting [5]) was 1.69 µM. Besides, in the data set with T. b. brucei (setting [6]), the EC90 is 4.88 µM.

`CN(C)C1CCN(C(=O)Nc2ccc3sc(-c4ccc(F)c(F)c4)nc3c2)C1` (stereo not shown) [Compound 11, 2-(3,4-Difluorophenyl)-5-(3-dimethylamino-N-pyrrolidylamido)benzothiazole]: the melting point lay in the range of 147 to 149 °C. Moreover, in data set [1], the Brain/plasma ratio was found to be 3.80 ± 0.331, the “[compound]Brain” value was determined as 3.00 ± 0.796 µM, the “[compound]Plasma” value is 0.780 ± 0.202 µM and the Kp at 1 h came out at 3.8 ± 0.57. The concentration at 1 h in data set [1] (setting [2]) stood at 3000 ± 1380 nM. For the same molecule, the concentration at 1 h in data set [1] (setting [3]) came to 780 ± 350 nM. Besides, the EC50 in the data set on T. b. brucei (setting [4]) came to 1.71 µM. Also, the EC50 with T. b. brucei (setting [5]) turned out to be 1.7 µM. For the same molecule, the EC90 in the data set with T. b. brucei (setting [6]) was 1.95 µM.

On to `O=C(Nc1ccc2sc(-c3ccc(F)cc3F)nc2c1)N1CCCC1` [Compound 34, 2-(2,4-Difluorophenyl)-5-(N-pyrrolidylamido)benzothiazole], for which the melting point lay within 223 to 224 °C. Besides, the EC50 with Trypanosoma cruzi (read-out: T.cruzi EC50) worked out at 1.73 µM. In the data set with Trypanosoma cruzi (read-out: T.cruzi EC90), the EC90 was 2.02 µM. Besides, the EC50 in the data set with T. b. brucei (setting [5]) was determined as 0.929 µM. The EC90 with T. b. brucei (setting [6]) was 1.48 µM.

`N#CC1CCN(C(=O)Nc2ccc3sc(-c4ccc(F)c(F)c4)nc3c2)C1` (stereo not shown) [Compound 36, 2-(3,4-Difluorophenyl)-5-(3-cyano-N-pyrrolidylamido)benzothiazole] returned a melting point of 222 to 224 °C. In the data set on T. b. brucei (setting [5]), the EC50 is 2.85 µM. Also, the EC90 with T. b. brucei (setting [6]) amounted to 4.67 µM.

In the case of `O=C(Nc1ccc2sc(-c3ccc(F)c(F)c3)nc2c1)N1CCC(O)C1` (stereo not shown) [Compound 38, 2-(3,4-Difluorophenyl)-5-(3-hydroxy-N-pyrrolidylamido)benzothiazole], the melting point was 211 to 213 °C. Further, in the data set on T. b. brucei (setting [5]), the EC50 stood at 7.68 µM. Moreover, the EC90 with T. b. brucei (setting [6]) worked out at 13.6 µM.

For `COC1CCN(C(=O)Nc2ccc3sc(-c4ccc(F)c(F)c4)nc3c2)C1` (stereo not shown) [Compound 39, 2-(3,4-Difluorophenyl)-5-(3-methoxy-N-pyrrolidylamido)benzothiazole], the melting point was in the range of 189 to 190.5 °C. Moreover, in the data set with T. b. brucei (setting [5]), the EC50 worked out at 3.05 µM. Also, the EC90 with T. b. brucei (setting [6]) amounted to 4.59 µM.

`O=C(Nc1ccc2sc(-c3ccc(F)c(F)c3)nc2c1)N1CCC(F)(F)CC1` [Compound 40, 2-(3,4-Difluorophenyl)-5-(4,4-difluoro-N-piperidylamido)benzothiazole] returned a melting point of 222 to 225 °C. Also, the EC50 with T. b. brucei (setting [5]) was 2.98 µM. The EC90 with T. b. brucei (setting [6]) worked out at 4.17 µM.

Turning to `O=C(Nc1ccc2sc(-c3ccc(F)c(F)c3)nc2c1)N1C[C@@H](F)[C@@H](F)C1` [Compound 59, cis-2-(3,4-Difluorophenyl)-5-(3,4-difluoro-N-pyrrolidylamido)benzothiazole], the melting point was 241 to 243 °C. Also, in the data set with T. b. brucei (Table 17, read-out: T. b. brucei EC50), the EC50 turned out to be 0.34 µM. The EC90 in the data set on T. b. brucei (Table 17, read-out: T. b. brucei EC90) was found to be 0.517 µM.

These data come from US10399966B2, “Compounds for treatment of trypanosomes and neurological pathogens and uses thereof” (The University of North Carolina at Chapel Hill, priority 2016, dated 2019).
